A value given as a limit tells only on which side of the number the result lay.

In patent US7973047B2, “Beta-Secretase modulators and methods of use” (Amgen Inc., priority 2010, dated 2011) one finds IC50 data, which are given here for 51 compounds.

The subject of the assay is Aβ40 in conditioned medium of cells stably expressing Amyloid Precursor Protein (APP). Nature of the assay: BACE cell-based assay: Aβ40 in conditioned medium by sandwich ELISA. To be noted: cell based assay data, Table 4; unit inferred; read-out: Cell Assay. Put shortly: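 Aβ40 in conditioned medium was read by time-resolved fluorescence sandwich ELISA (capture pAb40, detection biotinylated 6E10, 4° C incubations). Compounds were applied for 24 h to cells stably expressing APP, at 10 doses from 100 or 10 μM top, 0.1% DMSO. IC50 derived from percent of control.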

As to `CC(=O)N[C@@H](Cc1ccccc1)[C@H](O)CN[C@H]1CC2(CCC2)Oc2ccc(CCCCCO)cc21` [compound 822], the IC50 was 66.2 nM.
The figure for `CC(=O)N[C@@H](Cc1ccccc1)[C@H](O)CN[C@H]1CC2(CCC2)Oc2ccc(OC(C)C)cc21` [compound 823, N-((2S,3R)-3-hydroxy-4-((S)-6-isopropoxy-2,2-spirocyclobutyl-chroman-4-ylamino)-1-phenylbutan-2-yl)acetamide] is 310 nM; for `CC(=O)N[C@@H](Cc1cccnc1)[C@H](O)CN[C@H]1CC2(CCC2)Oc2ncc(CC(C)(C)C)cc21` [compound 824, N-((1S,2R)-3-(((4′S)-6′-(2,2-dimethylpropyl)-3′,4′-dihydrospiro[cyclobutane-1,2′-pyrano[2,3-b]pyridin]-4′-yl)amino)-2-hydroxy-1-(3-pyridinylmethyl)propyl)acetamide] it is 2.32 nM; for `CC(=O)N[C@@H](Cc1cccc(F)c1F)[C@H](O)CN[C@H]1CC2(CCC2)Oc2ncc(CC(C)(C)C)cc21` [compound 825] it is 4.34 nM.
On to `CC(=O)N[C@@H](Cc1c(F)cccc1F)[C@H](O)CN[C@H]1CC2(CCC2)Oc2ncc(CC(C)(C)C)cc21` [compound 826], for which the IC50 was determined as 6.93 nM.
With `CC(=O)N[C@@H](Cc1cccc(F)c1)[C@H](O)CN[C@H]1CC2(CCC2)Oc2cnc(CC(C)(C)F)cc21` [compound 827] the figure was 25.8 nM; with `CC(=O)N[C@@H](Cc1ccc(Cl)cc1)[C@H](O)CN[C@H]1CC2(CCC2)Oc2ncc(CC(C)(C)F)cc21` [compound 828], 78.4 nM; with `CC(=O)N[C@@H](CC1CCCN(C)C1)[C@H](O)CN[C@H]1CC2(CCC2)Oc2ncc(CC(C)(C)C)cc21` (stereo partly drawn) [compound 829], 2630 nM.
With `CC(=O)N[C@@H](Cc1cncc(F)c1)[C@H](O)CN[C@H]1CC2(CCC2)Oc2ncc(CC(C)(C)C)cc21` [compound 830, N-((1S,2R)-3-(((4′S)-6′-(2,2-dimethylpropyl)-3′,4′-dihydrospiro[cyclobutane-1,2′-pyrano[2,3-b]pyridin]-4′-yl)amino)-1-((5-fluoro-3-pyridinyl)methyl)-2-hydroxypropyl)acetamide] the figure was 1.82 nM; with `CC(=O)N[C@@H](Cc1cncc(F)c1)[C@@H](O)CN[C@H]1CC2(CCC2)Oc2ncc(CC(C)(C)C)cc21` [compound 831, N-((1S,2S)-3-(((4′S)-6′-(2,2-dimethylpropyl)-3′,4′-dihydrospiro[cyclobutane-1,2′-pyrano[2,3-b]pyridin]-4′-yl)amino)-1-((5-fluoro-3-pyridinyl)methyl)-2-hydroxypropyl)acetamide], 167 nM.
As for `COc1ccc(C[C@H](NC(C)=O)[C@H](O)CN[C@H]2CC3(CCC3)Oc3ncc(CC(C)(C)C)cc32)cc1OC` [compound 832], the IC50 is 9.28 nM.
In the case of `CC(=O)N[C@@H](Cc1cccc(F)c1F)[C@H](O)CN[C@H]1CC2(CCC2)Oc2ncc(CC(C)(C)F)cc21` [compound 833], the IC50 was 31 nM.
Consider `CC(=O)N[C@@H](Cc1ccc(F)c(Br)c1)[C@H](O)CN[C@H]1CC2(CCC2)Oc2ncc(CC(C)(C)F)cc21` [compound 834], for which the IC50 turned out to be 9.31 nM.
In the case of `CC(=O)N[C@@H](Cc1cc(F)cc(F)c1)[C@H](O)CN[C@H]1CC2(CCC2)Oc2ncc(CC(C)(C)F)cc21` [compound 835], the IC50 amounted to 2.05 nM.
In the case of `CC(=O)N[C@@H](Cc1ccc(F)c(Cl)c1)[C@H](O)CN[C@H]1CC2(CCC2)Oc2ncc(CC(C)(C)F)cc21` [compound 836], the IC50 is 14.7 nM.
The figure for `CC(=O)N[C@@H](Cc1cc(F)cc(Cl)c1)[C@H](O)CN[C@H]1CC2(CCC2)Oc2ncc(CC(C)(C)F)cc21` [compound 837] is 3.58 nM.
The figure for `CC(=O)N[C@@H](Cc1cccc(C(F)(F)F)c1)[C@H](O)CN[C@H]1CC2(CCC2)Oc2ncc(CC(C)(C)F)cc21` [compound 838] is 13.3 nM; for `CC(=O)N[C@@H](Cc1ccc2c(c1)OCO2)[C@H](O)CN[C@H]1CC2(CCC2)Oc2ncc(CC(C)(C)C)cc21` [compound 839] it is 5.49 nM.
On to `CC(=O)N[C@@H](Cc1ccc2c(c1)OCO2)[C@H](O)CN[C@H]1CC2(CCC2)Oc2ncc(CC(C)(C)F)cc21` [compound 840], for which the IC50 was determined as 27.7 nM.
The figure for `CC(=O)N[C@@H](Cc1ccccc1)[C@H](O)CN[C@H]1CC2(CCC2)Oc2ncc(CC(F)(F)F)cc21` [compound 841, N-((1S,2R)-2-hydroxy-1-(phenylmethyl)-3-(((4′S)-6′-(2,2,2-trifluoroethyl)-3′,4′-dihydrospiro[cyclobutane-1,2′-pyrano[2,3-b]pyridin]-4′-yl)amino)propyl)acetamide] is 84.8 nM; for `CC(=O)N[C@@H](Cc1ccc(F)c(F)c1)[C@H](O)CN[C@H]1CC2(CCC2)Oc2ncc(CC(F)(F)F)cc21` [compound 842] it is 106 nM; for `CC(=O)N[C@@H](Cc1cccc(F)c1)[C@H](O)CN[C@H]1CC2(CCC2)Oc2ncc(CC(C)C)cc21` [compound 844] it is 3.63 nM.
With `CC(=O)N[C@@H](Cc1ccc(F)cc1)[C@H](O)CN[C@H]1CC2(CCC2)Oc2ncc(CC(C)C)cc21` [compound 845], the IC50 turned out to be 11.4 nM.
As to `CC(=O)N[C@@H](Cc1cc(F)cc(F)c1)[C@H](O)CN[C@H]1CC2(CCC2)Oc2ncc(CC(C)C)cc21` [compound 846], the IC50 stood at 1.72 nM.
On to `CC(=O)N[C@@H](Cc1cc(F)cc(Cl)c1)[C@H](O)CN[C@H]1CC2(CCC2)Oc2ncc(CC(C)C)cc21` [compound 847], for which the IC50 was 4.27 nM.
With `CC(=O)N[C@@H](Cc1cccc(C(N)=O)c1)[C@H](O)CN[C@H]1CC2(CCC2)Oc2ncc(CC(C)C)cc21` [compound 848] the figure was 12.8 nM.
As for `CC(=O)N[C@@H](Cc1cccc(C#N)c1)[C@H](O)CN[C@H]1CC2(CCC2)Oc2ncc(CC(C)C)cc21` [compound 849], the IC50 came out at 1.26 nM.
As for `CC(=O)N[C@@H](Cc1cccc(F)c1F)[C@H](O)CN[C@H]1CC2(CCC2)Oc2ncc(CC(C)C)cc21` [compound 850], the IC50 is 8.68 nM.
In the case of `CC(=O)N[C@@H](Cc1ccc(F)c(F)c1)[C@H](O)CN[C@H]1CC2(CCC2)Oc2ncc(CC(C)C)cc21` [compound 851], the IC50 was 3.24 nM.
In the case of `CC(=O)N[C@@H](Cc1ccccc1)[C@H](O)CN[C@H]1CC2(CCC2)Oc2nc(F)c(CC(C)C)cc21` [compound 852], the IC50 was 52 nM.
The figure for `CC(=O)N[C@@H](Cc1cc(F)cc(F)c1)[C@H](O)CN[C@H]1CC2(CCC2)Oc2nc(F)c(CC(C)C)cc21` [compound 853] is 11.2 nM.
With `CC(=O)N[C@@H](Cc1ccc(F)cc1)[C@H](O)CN[C@H]1CC2(CCC2)Oc2nc(F)c(CC(C)C)cc21` [compound 854] the figure was 151 nM; with `CC(=O)N[C@@H](Cc1cccc(F)c1)[C@H](O)CN[C@H]1CC2(CCC2)Oc2nc(F)c(CC(C)C)cc21` [compound 855], 25.2 nM.
As for `CC(=O)N[C@@H](Cc1cccc(F)c1F)[C@H](O)CN[C@H]1CC2(CCC2)Oc2nc(F)c(CC(C)C)cc21` [compound 856], the IC50 came to 206 nM.
For the compound `CC(=O)N[C@@H](Cc1ccc(Cl)c(F)c1)[C@H](O)CN[C@H]1CC2(CCC2)Oc2ncc(CC(C)C)cc21` [compound 857], the IC50 came out at 26.2 nM.
With `CC(=O)N[C@@H](Cc1ccc(Cl)cc1)[C@H](O)CN[C@H]1CC2(CCC2)Oc2ncc(CC(C)C)cc21` [compound 858] the figure was 52.7 nM.
The figure for `CC(=O)N[C@@H](Cc1ccc(F)cc1)[C@H](O)CN[C@H]1CC2(CCC2)Oc2ncc(C(F)C(C)C(F)(F)F)cc21` (stereo partly drawn) [compound 859] is 148 nM; for `CC(=O)N[C@@H](Cc1ccc(Cl)cc1)[C@H](O)CN[C@H]1CC2(CCC2)Oc2ncc(C(F)C(C)C(F)(F)F)cc21` (stereo partly drawn) [compound 860] it is 452 nM.
The figure for `CC(=O)N[C@@H](Cc1cccc(F)c1)[C@H](O)CN[C@H]1CC2(CCC2)Oc2ncc(C(F)C(C)C(F)(F)F)cc21` (stereo partly drawn) [compound 861] is 26.4 nM.
`CC(=O)N[C@@H](Cc1ccccc1)[C@H](O)CN[C@H]1CC2(CCC2)Oc2ncc(C(F)C(C)C(F)(F)F)cc21` (stereo partly drawn) [compound 862]: the IC50 is 74.1 nM.
In the case of `CC(=O)N[C@@H](Cc1cccc(F)c1)[C@H](O)CN[C@H]1CC2(CCC2)Oc2ncc(C(O)C(C)C(F)(F)F)cc21` (stereo partly drawn) [compound 863], the IC50 is 1830 nM.
In the case of `CC(=O)N[C@@H](Cc1ccc(Cl)cc1)[C@H](O)CN[C@H]1CC2(CCC2)Oc2ncc(C(O)C(C)C(F)(F)F)cc21` (stereo partly drawn) [compound 864], the IC50 is at least 10000 nM.
In the case of `CC(=O)N[C@@H](Cc1ccccc1)[C@H](O)CN[C@H]1CC2(CCC2)Oc2ncc(C(O)C(C)C(F)(F)F)cc21` (stereo partly drawn) [compound 865], the IC50 was 1930 nM.
As to `CC(=O)N[C@H](Cc1cccc(Cl)c1F)[C@H](O)CN[C@H]1CC2(CCC2)Oc2ncc(CC(C)(C)C)cc21` [compound 866], the IC50 is at least 10000 nM.
The figure for `CC(=O)N[C@@H](Cc1cc(Cl)ccc1F)[C@H](O)CN[C@H]1CC2(CCC2)Oc2ncc(CC(C)(C)C)cc21` [compound 867] is 2.33 nM; for `CC(=O)N[C@@H](Cc1cccc(Cl)c1F)[C@H](O)CN[C@H]1CC2(CCC2)Oc2ncc(CC(C)(C)C)cc21` [compound 868] it is 6.26 nM; for `CC(=O)N[C@@H](Cc1cc(F)c(F)c(Cl)c1)[C@H](O)CN[C@H]1CC2(CCC2)Oc2ncc(CC(C)(C)C)cc21` [compound 869] it is 17.9 nM.
The figure for `CC(=O)N[C@@H](Cc1c(F)ccc(F)c1F)[C@H](O)CN[C@H]1CC2(CCC2)Oc2ncc(CC(C)(C)C)cc21` [compound 870] is 35.6 nM; for `CC(=O)N[C@@H](Cc1cc(F)cc(F)c1F)[C@H](O)CN[C@H]1CC2(CCC2)Oc2ncc(CC(C)(C)C)cc21` [compound 871] it is 2.03 nM; for `CC(=O)N[C@@H](Cc1ccc(Br)cc1)[C@H](O)CN[C@H]1CC2(CCC2)Oc2ncc(CC(C)(C)C)cc21` [compound 872] it is 34.5 nM.
With `COC(=O)N[C@@H](Cc1ccccc1)[C@H](O)CN[C@H]1CC2(CCC2)Oc2ncc(CC(C)(C)C)cc21` [compound 873] the figure was 20.6 nM.
